Target: T1, Potassium voltage-gated channel subfamily A member 5 (Homo sapiens, UniProt P22460)
Test: Inhibition of Kv1.5 (unknown origin)
Settings: not given

T1 sequence (P22460 whole entry): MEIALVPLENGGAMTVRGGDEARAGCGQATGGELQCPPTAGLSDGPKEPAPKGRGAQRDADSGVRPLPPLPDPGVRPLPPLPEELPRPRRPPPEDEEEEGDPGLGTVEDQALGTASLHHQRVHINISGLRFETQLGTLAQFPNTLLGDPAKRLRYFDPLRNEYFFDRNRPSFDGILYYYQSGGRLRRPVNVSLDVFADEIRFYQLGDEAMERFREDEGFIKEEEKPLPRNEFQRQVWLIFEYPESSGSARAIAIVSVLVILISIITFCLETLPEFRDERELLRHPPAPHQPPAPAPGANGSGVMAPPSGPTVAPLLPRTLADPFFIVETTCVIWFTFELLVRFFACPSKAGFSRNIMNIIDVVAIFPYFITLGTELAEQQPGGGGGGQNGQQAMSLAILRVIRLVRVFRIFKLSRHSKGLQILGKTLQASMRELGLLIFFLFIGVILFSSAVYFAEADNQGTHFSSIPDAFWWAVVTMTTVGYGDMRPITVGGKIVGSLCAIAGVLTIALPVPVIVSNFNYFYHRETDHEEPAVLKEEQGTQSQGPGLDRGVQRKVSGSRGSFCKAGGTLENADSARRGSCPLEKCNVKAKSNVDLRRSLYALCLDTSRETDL

Compound | IC50 [µM]
Clc1cccc(-c2ncccc2CC(c2cccnc2)c2cccnc2)c1 | 0.03
Nc1cccc(C(Cc2cccnc2-c2cc(Cl)cc(Cl)c2)c2cccnc2)n1 (stereo not given) | 0.062
CN(c1cccnc1)c1ncccc1CC(c1cccnc1)c1cccnc1 | 0.09
c1ccc(-c2ccccc2CC(c2cccnc2)c2cccnc2)cc1 | 1.39
CS(=O)(=O)Nc1cccc([C@H](c2ccc(F)cc2)C(c2cccnc2)c2cccnc2)n1 | 0.009
O[C@@H](c1cccnc1-c1cccc(C(F)(F)F)c1)C(c1cccnc1)c1cccnc1 | 0.29
c1cncc(C(Cc2ccccc2-c2ccncc2)c2cccnc2)c1 | 0.444
FC(F)(F)Oc1cccc(-c2ncccc2CC(c2cccnc2)c2cccnc2)c1 | 0.033
Clc1ccccc1-c1ncccc1CC(c1cccnc1)c1cccnc1Cl (stereo not given) | 0.026
OC(c1cccnc1-c1cccc(Cl)c1Cl)C(c1cccnc1)c1cccnc1 (racemic) | 0.11
c1cncc(C(Cc2ccccc2-c2cncc3ccccc23)c2cccnc2)c1 | 0.133
CS(=O)(=O)Nc1cccc(-c2cc(F)ccc2CC(c2cccnc2)c2cccnc2)n1 | 1.59
Fc1ccc(CC(c2cccnc2)c2cccnc2)c(-c2cn[nH]c2)c1 | > 10
N#Cc1cccc(-c2cccc(Cl)c2CC(c2cccnc2)c2cccnc2)c1 | 2.86
FC(F)(F)c1cccc(-c2ncccc2CC(c2cccnc2)c2cccnc2)c1 | 0.084
c1cncc(-c2ccccc2CC(c2cccnc2)c2cccnc2)c1 | 0.064

Target: T1, Potassium voltage-gated channel subfamily A member 5
Test: Inhibition of Kv1.5 mediated ultra-rapid delayed rectifier current Ikur in human atrial myocytes by voltage-patch clamp electrophysiology method
Type: cell-based
Settings: not given

Compound | IC50 [µM]
CS(=O)(=O)Nc1cccc([C@H](c2ccc(F)cc2)C(c2cccnc2)c2cccnc2)n1 | 0.011

Target: Voltage-gated potassium channel, IKs; KCNQ1(Kv7.1)/KCNE1(MinK) (Homo sapiens, UniProt P15382+P51787)
Test: Inhibition of human KCNQ1/KCNE1 expressed in HEK293 cells assessed as reduction in slowly activating delayed rectifier cardiac potassium current by patch clamp electrophysiology method
Type: cell-based
Settings: not given

Compound | IC50 [µM]
CS(=O)(=O)Nc1cccc([C@H](c2ccc(F)cc2)C(c2cccnc2)c2cccnc2)n1 | 0.79

Target: KCNQ1/KCNE1 (IKs) (Homo sapiens, UniProt P15382+P51787)
Test: Inhibition of human KCNQ1/KCNE1 expressed in HEK293 cells assessed as reduction in slowly activating delayed rectifier cardiac potassium current at 10 uM by patch clamp electrophysiology method
Type: cell-based
Settings: HEK293 cells expressing human KCNQ1/KCNE1

Sequence of KCNQ1/KCNE1 (IKs) (P51787 whole entry): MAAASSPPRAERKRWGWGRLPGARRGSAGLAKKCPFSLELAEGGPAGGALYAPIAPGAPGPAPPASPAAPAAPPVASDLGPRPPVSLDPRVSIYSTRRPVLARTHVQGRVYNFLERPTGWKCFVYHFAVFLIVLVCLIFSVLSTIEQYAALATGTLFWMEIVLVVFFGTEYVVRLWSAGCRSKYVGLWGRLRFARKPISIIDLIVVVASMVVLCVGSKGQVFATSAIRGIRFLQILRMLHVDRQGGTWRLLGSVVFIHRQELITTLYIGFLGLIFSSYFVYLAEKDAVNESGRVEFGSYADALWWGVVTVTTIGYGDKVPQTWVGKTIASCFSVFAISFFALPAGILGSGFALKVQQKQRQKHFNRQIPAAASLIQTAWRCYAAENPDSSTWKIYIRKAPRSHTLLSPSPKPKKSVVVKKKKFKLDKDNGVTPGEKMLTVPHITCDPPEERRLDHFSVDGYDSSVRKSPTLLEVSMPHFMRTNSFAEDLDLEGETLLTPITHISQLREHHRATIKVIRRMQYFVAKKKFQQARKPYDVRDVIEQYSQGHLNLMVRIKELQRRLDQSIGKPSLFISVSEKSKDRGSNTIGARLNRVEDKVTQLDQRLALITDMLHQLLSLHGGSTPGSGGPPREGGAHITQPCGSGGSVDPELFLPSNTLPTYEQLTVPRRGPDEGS

Compound | inhibition at 10 µM [%]
OC(c1cccnc1-c1ccccc1Cl)C(c1cccnc1)c1cccnc1 (stereo not given) | -0.5
Clc1cccc(-c2ncccc2CC(c2cccnc2)c2cccnc2)c1 | 36
Nc1cccc(C(Cc2cccnc2-c2cc(Cl)cc(Cl)c2)c2cccnc2)n1 (stereo not given) | 57
CN(c1cccnc1)c1ncccc1CC(c1cccnc1)c1cccnc1 | 5
O[C@@H](c1cccnc1-c1cccc(C(F)(F)F)c1)C(c1cccnc1)c1cccnc1 | -14
FC(F)(F)Oc1cccc(-c2ncccc2CC(c2cccnc2)c2cccnc2)c1 | 67
Clc1ccccc1-c1ncccc1CC(c1cccnc1)c1cccnc1Cl (stereo not given) | 80
OC(c1cccnc1-c1cccc(Cl)c1Cl)C(c1cccnc1)c1cccnc1 (racemic) | -3.3
c1cncc(C(Cc2ccccc2-c2cncc3ccccc23)c2cccnc2)c1 | 77
FC(F)(F)c1cccc(-c2ncccc2CC(c2cccnc2)c2cccnc2)c1 | 23
c1cncc(-c2ccccc2CC(c2cccnc2)c2cccnc2)c1 | 22

Target: T2, Voltage-gated inwardly rectifying potassium channel KCNH2 (Homo sapiens, UniProt Q12809)
Test: Inhibition of human ERG expressed in CHOK1 cells assessed as reduction in rapidly activating delayed rectifier cardiac potassium current by whole-cell voltage-patch clamp assay
Type: cell-based
Settings: not given

T2 sequence (Q12809 whole entry): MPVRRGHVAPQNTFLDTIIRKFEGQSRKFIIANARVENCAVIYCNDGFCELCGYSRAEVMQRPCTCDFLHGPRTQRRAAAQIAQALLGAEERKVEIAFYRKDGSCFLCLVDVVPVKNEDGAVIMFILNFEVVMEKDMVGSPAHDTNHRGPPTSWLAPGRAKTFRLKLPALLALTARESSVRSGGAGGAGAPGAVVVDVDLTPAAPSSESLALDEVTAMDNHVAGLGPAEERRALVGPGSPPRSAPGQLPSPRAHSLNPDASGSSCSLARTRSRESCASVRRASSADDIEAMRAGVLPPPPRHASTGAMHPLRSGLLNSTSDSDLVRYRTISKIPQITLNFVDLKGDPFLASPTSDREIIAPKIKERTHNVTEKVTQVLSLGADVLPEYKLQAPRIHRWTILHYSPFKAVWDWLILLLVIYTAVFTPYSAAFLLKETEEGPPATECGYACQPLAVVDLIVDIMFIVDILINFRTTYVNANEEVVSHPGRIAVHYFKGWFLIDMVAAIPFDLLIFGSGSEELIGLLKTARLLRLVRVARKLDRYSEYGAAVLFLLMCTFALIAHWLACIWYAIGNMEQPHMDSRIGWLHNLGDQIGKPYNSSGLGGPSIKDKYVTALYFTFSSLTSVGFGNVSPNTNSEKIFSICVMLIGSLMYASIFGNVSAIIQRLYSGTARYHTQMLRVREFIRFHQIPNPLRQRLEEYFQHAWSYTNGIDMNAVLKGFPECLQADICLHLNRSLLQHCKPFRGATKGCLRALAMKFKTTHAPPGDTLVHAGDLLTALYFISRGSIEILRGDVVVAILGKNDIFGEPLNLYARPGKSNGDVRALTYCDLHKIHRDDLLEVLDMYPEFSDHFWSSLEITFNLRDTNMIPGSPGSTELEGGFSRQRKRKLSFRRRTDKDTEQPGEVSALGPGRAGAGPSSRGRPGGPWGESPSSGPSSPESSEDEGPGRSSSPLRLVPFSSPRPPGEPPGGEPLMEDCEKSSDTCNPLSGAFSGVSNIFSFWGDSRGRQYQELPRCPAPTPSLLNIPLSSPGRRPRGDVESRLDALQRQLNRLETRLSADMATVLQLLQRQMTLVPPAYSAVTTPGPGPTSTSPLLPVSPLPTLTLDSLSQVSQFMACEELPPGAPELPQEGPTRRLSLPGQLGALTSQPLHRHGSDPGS

Compound | IC50 [µM]
CS(=O)(=O)Nc1cccc([C@H](c2ccc(F)cc2)C(c2cccnc2)c2cccnc2)n1 | 110

Target: T2, Voltage-gated inwardly rectifying potassium channel KCNH2
Test: Displacement of [3H]-MK499 from human ERG IKr channel expressed in HEK293 cell membranes
Settings: not given

Compound | IC50 [µM]
OC(c1cccnc1-c1ccccc1Cl)C(c1cccnc1)c1cccnc1 (stereo not given) | > 30
Clc1cccc(-c2ncccc2CC(c2cccnc2)c2cccnc2)c1 | > 30
Nc1cccc(C(Cc2cccnc2-c2cc(Cl)cc(Cl)c2)c2cccnc2)n1 (stereo not given) | 10.2
CN(c1cccnc1)c1ncccc1CC(c1cccnc1)c1cccnc1 | > 30
c1ccc(-c2ccccc2CC(c2cccnc2)c2cccnc2)cc1 | 7.62
CS(=O)(=O)Nc1cccc([C@H](c2ccc(F)cc2)C(c2cccnc2)c2cccnc2)n1 | > 30
O[C@@H](c1cccnc1-c1cccc(C(F)(F)F)c1)C(c1cccnc1)c1cccnc1 | > 30
c1cncc(C(Cc2ccccc2-c2ccncc2)c2cccnc2)c1 | 22.1
FC(F)(F)Oc1cccc(-c2ncccc2CC(c2cccnc2)c2cccnc2)c1 | 12.7
c1cncc(C(Cc2ccccc2-c2cncc3ccccc23)c2cccnc2)c1 | 12
N#Cc1cccc(-c2cccc(Cl)c2CC(c2cccnc2)c2cccnc2)c1 | 2.56
FC(F)(F)c1cccc(-c2ncccc2CC(c2cccnc2)c2cccnc2)c1 | > 30

Target: T3, A-type voltage-gated potassium channel KCND3 (Homo sapiens, UniProt Q9UK17)
T3 sequence (Q9UK17 whole entry): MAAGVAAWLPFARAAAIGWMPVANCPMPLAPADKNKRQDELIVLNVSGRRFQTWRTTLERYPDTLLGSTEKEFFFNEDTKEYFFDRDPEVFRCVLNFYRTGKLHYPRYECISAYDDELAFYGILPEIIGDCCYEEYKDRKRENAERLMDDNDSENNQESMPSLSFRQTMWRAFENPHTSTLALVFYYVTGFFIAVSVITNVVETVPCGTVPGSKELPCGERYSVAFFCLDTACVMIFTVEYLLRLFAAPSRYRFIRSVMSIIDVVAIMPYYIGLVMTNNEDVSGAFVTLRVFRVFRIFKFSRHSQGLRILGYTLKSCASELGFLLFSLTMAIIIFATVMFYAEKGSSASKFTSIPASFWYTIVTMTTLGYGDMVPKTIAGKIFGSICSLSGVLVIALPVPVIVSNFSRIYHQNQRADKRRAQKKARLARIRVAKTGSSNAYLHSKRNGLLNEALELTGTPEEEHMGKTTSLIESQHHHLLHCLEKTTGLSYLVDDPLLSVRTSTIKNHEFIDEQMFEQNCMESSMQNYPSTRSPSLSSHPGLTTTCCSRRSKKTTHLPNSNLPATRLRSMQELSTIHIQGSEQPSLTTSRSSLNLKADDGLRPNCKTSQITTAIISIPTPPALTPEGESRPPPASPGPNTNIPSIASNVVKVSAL
Test: Inhibition of Kv4.3 (unknown origin) assessed as reduction in transient outward potassium current by high throughput clamp method
Settings: not given

Compound | IC50 [µM]
CS(=O)(=O)Nc1cccc([C@H](c2ccc(F)cc2)C(c2cccnc2)c2cccnc2)n1 | 2.3

Target: Sodium channel protein type 5 subunit alpha (Homo sapiens, UniProt Q14524)
Test: Inhibition of SCN5a (unknown origin) assessed as reduction in sodium current at 10 uM by voltage/ion probe reader method
Settings: not given

Sequence of Sodium channel protein type 5 subunit alpha (Q14524 whole entry): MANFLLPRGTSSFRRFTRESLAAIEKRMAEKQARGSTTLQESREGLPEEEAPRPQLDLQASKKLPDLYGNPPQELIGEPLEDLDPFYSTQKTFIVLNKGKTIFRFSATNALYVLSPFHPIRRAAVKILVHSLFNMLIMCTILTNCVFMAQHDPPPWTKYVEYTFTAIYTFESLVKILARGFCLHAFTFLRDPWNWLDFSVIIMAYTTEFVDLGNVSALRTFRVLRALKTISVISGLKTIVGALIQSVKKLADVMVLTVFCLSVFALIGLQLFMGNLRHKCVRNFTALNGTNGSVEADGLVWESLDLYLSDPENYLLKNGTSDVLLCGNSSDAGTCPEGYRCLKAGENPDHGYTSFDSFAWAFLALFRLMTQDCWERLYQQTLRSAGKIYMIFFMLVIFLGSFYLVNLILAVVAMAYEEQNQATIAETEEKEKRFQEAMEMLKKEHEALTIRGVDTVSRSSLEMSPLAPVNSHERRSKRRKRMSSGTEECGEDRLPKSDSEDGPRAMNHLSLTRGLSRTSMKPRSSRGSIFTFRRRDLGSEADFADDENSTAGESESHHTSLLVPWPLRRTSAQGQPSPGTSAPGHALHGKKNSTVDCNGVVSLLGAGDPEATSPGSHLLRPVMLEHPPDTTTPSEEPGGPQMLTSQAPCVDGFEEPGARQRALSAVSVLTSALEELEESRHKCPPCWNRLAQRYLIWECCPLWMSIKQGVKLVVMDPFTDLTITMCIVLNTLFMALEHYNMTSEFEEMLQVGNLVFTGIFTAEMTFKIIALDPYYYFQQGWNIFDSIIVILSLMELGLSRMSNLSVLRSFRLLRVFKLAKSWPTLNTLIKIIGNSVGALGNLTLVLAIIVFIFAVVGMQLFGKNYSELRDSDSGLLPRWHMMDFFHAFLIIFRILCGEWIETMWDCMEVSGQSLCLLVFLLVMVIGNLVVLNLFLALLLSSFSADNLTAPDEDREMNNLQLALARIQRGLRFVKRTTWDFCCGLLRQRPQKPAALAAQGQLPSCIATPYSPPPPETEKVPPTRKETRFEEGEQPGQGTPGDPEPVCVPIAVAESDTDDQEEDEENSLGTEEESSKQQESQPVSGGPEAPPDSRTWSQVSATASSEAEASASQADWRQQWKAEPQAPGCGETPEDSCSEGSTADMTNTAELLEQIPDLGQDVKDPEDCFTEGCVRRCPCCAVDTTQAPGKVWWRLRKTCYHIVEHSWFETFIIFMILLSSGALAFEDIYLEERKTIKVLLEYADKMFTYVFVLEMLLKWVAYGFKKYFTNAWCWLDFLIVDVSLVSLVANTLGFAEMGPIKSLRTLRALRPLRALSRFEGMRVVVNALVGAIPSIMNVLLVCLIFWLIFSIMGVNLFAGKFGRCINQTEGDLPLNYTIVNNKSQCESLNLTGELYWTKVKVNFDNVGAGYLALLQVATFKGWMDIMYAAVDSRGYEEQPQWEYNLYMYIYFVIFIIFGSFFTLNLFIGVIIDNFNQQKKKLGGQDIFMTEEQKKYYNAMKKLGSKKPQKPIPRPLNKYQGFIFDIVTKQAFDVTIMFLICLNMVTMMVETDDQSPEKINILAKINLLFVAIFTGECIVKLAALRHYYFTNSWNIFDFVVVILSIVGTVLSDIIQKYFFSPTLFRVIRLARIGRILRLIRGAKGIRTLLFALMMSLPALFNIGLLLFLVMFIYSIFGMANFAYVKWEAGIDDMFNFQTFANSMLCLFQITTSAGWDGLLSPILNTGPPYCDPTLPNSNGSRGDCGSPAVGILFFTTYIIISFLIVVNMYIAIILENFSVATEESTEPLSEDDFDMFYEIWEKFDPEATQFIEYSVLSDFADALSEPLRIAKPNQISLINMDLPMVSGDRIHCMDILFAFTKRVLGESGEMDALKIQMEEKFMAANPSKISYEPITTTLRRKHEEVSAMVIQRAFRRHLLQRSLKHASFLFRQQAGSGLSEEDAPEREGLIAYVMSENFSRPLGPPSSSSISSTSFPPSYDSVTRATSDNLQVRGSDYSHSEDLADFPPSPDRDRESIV

Compound | inhibition (INH)
CS(=O)(=O)Nc1cccc([C@H](c2ccc(F)cc2)C(c2cccnc2)c2cccnc2)n1 | Not Active

Species: Homo sapiens
Test: Substrate activity at human P-gp assessed as efflux ratio
Settings: not given

Compound | Ratio
OC(c1cccnc1-c1ccccc1Cl)C(c1cccnc1)c1cccnc1 (stereo not given) | 28
O[C@@H](c1cccnc1-c1cccc(C(F)(F)F)c1)C(c1cccnc1)c1cccnc1 | 7
OC(c1cccnc1-c1cccc(Cl)c1Cl)C(c1cccnc1)c1cccnc1 (racemic) | 17

Test system: not listed separately
Test: Drug metabolism in human hepatocytes assessed as oxidation of the A/B ring nitrogens up to 3 hrs by mass spectrometry
Type: ADME, cell-based, Hepatocyte
Settings: not given

Compound | Drug metabolism
CN(C)C(=O)c1cccc(-c2ccc(F)cc2CC(c2cccnc2)c2cccnc2)c1 | Metabolite_Detected

Test system: not listed separately
Test: Drug metabolism in human hepatocytes assessed as oxidation of the ethane at the center up to 3 hrs by mass spectrometry
Type: ADME, cell-based, Hepatocyte
Settings: not given

Compound | Drug metabolism
CN(C)C(=O)c1cccc(-c2ccc(F)cc2CC(c2cccnc2)c2cccnc2)c1 | Metabolite_Detected

Test system: not listed separately
Test: Metabolic stability in human hepatocytes up to 3 hrs by mass spectrometry
Type: ADME, cell-based, Hepatocyte
Settings: not given

Compound | Stability
CN(C)C(=O)c1cccc(-c2ccc(F)cc2CC(c2cccnc2)c2cccnc2)c1 | Unstable
CS(=O)(=O)Nc1cccc([C@H](c2ccc(F)cc2)C(c2cccnc2)c2cccnc2)n1 | Stable

Test system: Canis familiaris
Test: Anti-atrial fibrillation activity in iv dosed anesthetized Mongrel dog assessed as increase in atrial refractory period at 400 ms of basic cycle length administered as 60 mins infusion measured up to 60 mins by electrophysiology method
Type: functional, Canis lupus familiaris
Settings: not given

Compound | EC10 [µM]
CS(=O)(=O)Nc1cccc([C@H](c2ccc(F)cc2)C(c2cccnc2)c2cccnc2)n1 | 0.031

Test system: Canis familiaris
Test: Effect on ventricular refractory period in iv dosed anesthetized Mongrel dog assessed as threshold change in ventricular refractory period at 400 ms of basic cycle length administered as 60 mins infusion measured up to 60 mins by electrophysiology method
Type: ADME, organism-based, Canis lupus familiaris
Settings: in vivo, 1 h

Compound | Activity [µM]
CS(=O)(=O)Nc1cccc([C@H](c2ccc(F)cc2)C(c2cccnc2)c2cccnc2)n1 | 6 to 7

Test system: not listed separately
Test: Selectivity index, ratio of IC50 for human KCNQ1/KCNE1 IKs channel expressed in HEK293 cells to IC50 for Kv1.5 IKur channel in human atrial myocytes
Settings: not given

Compound | Ratio IC50
CS(=O)(=O)Nc1cccc([C@H](c2ccc(F)cc2)C(c2cccnc2)c2cccnc2)n1 | 70

Test system: Canis familiaris
Test: Selectivity index, ratio of compound effect for anti-atrial fibrillation activity in iv dosed anesthetized Mongrel dog assessed as increase in atrial refractory period to compound effect on ventricular refractory period in iv dosed anesthetized Mongrel dog
Design: species or system Canis lupus familiaris
Settings: not given

Compound | Selectivity Index
CS(=O)(=O)Nc1cccc([C@H](c2ccc(F)cc2)C(c2cccnc2)c2cccnc2)n1 | 210

Source: ChEMBL document CHEMBL4002640, “Discovery of MK-1832, a Kv1.5 inhibitor with improved selectivity and pharmacokinetics” (Bioorg Med Chem Lett, 2017)
